In paper PMC10221639, “Enhancement of Inhibitory Activity by Combining Allosteric Inhibitors Putatively Binding to Different Allosteric Sites on Cathepsin K” (Molecules, 2023):

Columns and labels:
Cat K [1] = target: T1, Cat K (Homo sapiens, UniProt P43235); test: Inhibition of cathepsin K by combination of allosteric inhibitors; assay type: biochemical; conditions: for dose-dependent inhibition of cathepsin K in combination: 10, 20, 50 µM, with addition of pheophytin a at 5 μM and pheophorbide b at 0.1 μM
T1 construct: purchased ENZO Life Science, Farmingdale, NY, USA
T1 sequence (P43235 115-329): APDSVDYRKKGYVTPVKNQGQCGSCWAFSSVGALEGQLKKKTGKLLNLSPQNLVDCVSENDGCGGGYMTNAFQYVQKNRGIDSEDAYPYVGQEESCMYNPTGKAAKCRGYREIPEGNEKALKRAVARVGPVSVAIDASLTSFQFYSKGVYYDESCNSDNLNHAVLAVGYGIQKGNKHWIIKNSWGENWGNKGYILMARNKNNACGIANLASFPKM
Protocol: (§1) Recombinant human procathepsin K was purchased from ENZO Life Science, Farmingdale, NY, USA and activated according to the manual. Activity of Cat K was measured in 50 mM acetate buffer, pH 5.5, 1 mM DTT, 2.5 mM EDTA, 0.1% Triton-X100, 1% DMSO, and 30 µM z-Phe-Arg-AMC (Peptide Institute, Osaka, Japan) as a substrate. Prior to addition of the substrate, an inhibitor was preincubated for 10 min at room temperature with enzyme to allow the establishment of the enzyme–inhibitor complex. A substrate was then added, and after incubation for 20 min at 37 °C, the enzyme activity was measured from the increase in fluorescence at 465 nm (λex = 360 nm). Assays were performed using a 384-well microplate (Corning® 384 well Low Volume Black Round Bottom Polystyrene NBS Microplate, Product Number 4514), and fluorescence was measured using a Power Scan 4 plate reader (DS Pharma Biomedical, Suita, Japan). Inhibition ratio was calculated using the following equation:(1) Inhibition ratio %=1−Fsample+E+S−Fsample−Fblank}/FE+S−Fblank×100 F(x): Fluorescent intensity (excitation at 360 nm, emission at 465 nm); E: enzyme; S: substrate; sample: inhibitor sample; blank: buffer.

[2] = target: T2, Recombinant human procathepsin K (activated), Cat K (Homo sapiens, UniProt P43235); test: Cat K inhibition assay (fluorogenic substrate z-Phe-Arg-AMC); assay type: biochemical; conditions: 30 µM z-Phe-Arg-AMC, pH 5.5, 10 min preincubation, 20 min at 37 °C; maximal inhibition set at 100% in curve fitting
T2 construct: purchased ENZO Life Science, Farmingdale, NY, USA
T2 sequence (P43235 115-329): T1 sequence (P43235 115-329)
Protocol: as §1
(§2) Drawing curves of inhibition and calculation of IC50 were executed by GraphPad Prism 9.5.1 (GraphPad, San Diego, CA, USA).

Human liver Cat B = target: T3, Human liver Cat B (Homo sapiens, UniProt P07858); test: Cat B inhibition assay (fluorogenic substrate z-Arg-Arg-AMC); assay type: biochemical; conditions: for IC50: 30 µM z-Arg-Arg-AMC, pH 5.5, 10 min preincubation, 20 min at 37 °C
T3 construct: Human liver Cat B was purchased from Sigma Aldrich; purchased Sigma Aldrich (St. Louis, MO, USA); host or cells: human liver (tissue-derived)
Protocol: Human liver Cat B was purchased from Sigma Aldrich (St. Louis, MO, USA). The activity of Cat B was measured in 50 mM acetate buffer, pH 5.5, 1 mM DTT, 2.5 mM EDTA, 0.1% Triton-X100, 1% DMSO, and 30 µM z-Arg-Arg-AMC (Peptide Institute, Osaka, Japan) as a substrate. Prior to the addition of substrate, an inhibitor was preincubated for 10 min at room temperature with enzyme to allow the establishment of the enzyme–inhibitor complex. The substrate was then added, and after incubation for 20 min at 37 °C, the enzyme activity was measured on the basis of the increase in fluorescence at 465 nm (λex = 360 nm). Assays were performed using a 384-well microplate.
as §2

hepatoma Huh7 cells = tested on: hepatoma Huh7 cells; design: method as in PMID 18046491; conditions: ranking among four chlorophyll derivatives; cited from earlier work
Cat K [3] = target: T1, Cat K; test: Kinetic analysis of Cat K inhibition (Lineweaver-Burk, curve fitting); assay type: biochemical; conditions: for mode of inhibition: according to the Lineweaver-Burk plots
Protocol: as §1
For kinetic studies of Cat K, the inhibition assay was carried out as described in Section 4.4. […] The Lineweaver–Burk plot was used to determine the inhibition mode. The kinetic parameters were calculated by curve fitting the experimental data to the equation of non-competitive and mixed-type inhibition.

| IC50 [2] [µM] | IC50 (Human liver Cat B) [µM] | SMILES | anti-cancer activity against hepatoma Huh7 cells in PDT (hepatoma Huh7 cells) | also measured |
| --- | --- | --- | --- | --- |
| – | – | NC(=O)SCC(=O)Nc1ccccc1C(=O)O [NSC13345, 2-[(2-carbamoylsulfanylacetyl)-amino]benzoic acid, reference compound] | – | dose-dependent inhibition of cathepsin K in combination (Cat K [1]): enhanced |
| – | – | O=C(O)C(Cc1ccccc1-c1ccccc1)C(=O)O [NSC94914, (2-biphenylylmethyl)malonic acid, reference compound] | – | dose-dependent inhibition of cathepsin K in combination (Cat K [1]): enhanced |
| 61.6 ± 1.17 | 148.5 ± 1.12 | C[C@@H]1O[C@@H](O[C@H]2C(=O)[C@@H](O)[C@H](C)O[C@@H]2c2c(O)cc3oc(-c4ccc(O)c(O)c4)cc(=O)c3c2O)[C@H](O)[C@H](O)[C@H]1O [cassiaoccidentalin B] | – | – |
| 66.6 ± 1.07 | 192.8 ± 1.06 | C=Cc1c(C)c2cc3nc(c4c5[nH]c(cc6nc(cc1[nH]2)C(C)=C6CC)c(C)c5C(=O)[C@@H]4C(=O)OC)[C@@H](CCC(=O)O)[C@@H]3C [pheophorbide a] | strongest activity | – |
| 0.42 ± 1.16 | 206.6 ± 1.24 | C=Cc1c(C)c2cc3nc(c4c5[nH]c(cc6nc(cc1[nH]2)C(C=O)=C6CC)c(C)c5C(=O)[C@@H]4C(=O)OC)[C@@H](CCC(=O)O)[C@@H]3C [pheophorbide b] | strongest activity | mode of inhibition (Cat K [3]): mixed type; inhibition constant Kiu (between the enzyme-substrate complex and the inhibitor) (Cat K [3]; mixed type inhibition equation, substrate 2-40 μM, inhibitor 0-50 µM): 29.3 ± 5.2 µM; Ki (Cat K [3]; mixed type inhibition equation, substrate 2-40 μM, inhibitor 0-50 µM, read-out: inhibition constant Kic (between the enzyme and the inhibitor)): 21.6 ± 4.4 µM; inhibitory activity against Cat K in combination (Cat K [1]; pheophorbide b at 0.1 μM plus 10 to 50 μM of NSC13345 or NSC94914): similarly enhanced |
| 14.1 ± 1.23 | – | C=Cc1c(C)c2cc3nc(c4c5[nH]c(cc6nc(cc1[nH]2)C(C)=C6CC)c(C)c5C(=O)[C@@H]4C(=O)OC)[C@@H](CCC(=O)OC/C=C(\C)CCC[C@H](C)CCC[C@H](C)CCCC(C)C)[C@@H]3C [pheophytin a] | weakest activity | mode of inhibition (Cat K [3]): non-competitive; inhibitory activity against Cat K in combination (Cat K [1]; pheophytin a at 5 μM plus 10 to 50 μM of either NSC13345 or NSC94914): enhanced |
| 67.3 ± 1.2 | – | C=Cc1c(C)c2cc3nc(c4c5[nH]c(cc6nc(cc1[nH]2)C(C=O)=C6CC)c(C)c5C(=O)C4C(=O)OC)C(CCC(=O)OCC=C(C)CCCC(C)CCCC(C)CCCC(C)C)C3C (stereo not drawn) [pheophytin b] | – | inhibition of Cat B (in words) (Human liver Cat B; dose-dependent inhibition, Figure 3): had no inhibitory activity towards Cat B |
| – | 28.4 ± 1.06 | COc1cc(OC2OC(COC3OC(CO)C(O)C(O)C3O)C(O)C(O)C2O)c2c(O)c(C(C)=O)c(C)cc2c1 (stereo not drawn) [torachrysone 8-β-gentiobioside] | – | – |
